{
  "source": "patent US8859743B2",
  "about": "“Controlling microbial contamination in alcoholic fermentation process” (Arch Chemicals, Inc., priority 2009, dated 2014)",
  "type_in_all_cases": "cell-based",
  "key": {"bacteria": {"test_system": "bacteria", "experiment": "Count of other bacteria in treated fermentative must (TSA)"}, "Saccharomyces cerevisiae": {"test_system": "Saccharomyces cerevisiae", "experiment": "Count of fermentative yeast in treated fermentative must (WLN)"}, "Wild yeast": {"test_system": "Wild yeast", "experiment": "Count of wild yeast in treated fermentative must (WLN+)"}, "Lactobacilli": {"test_system": "Lactobacilli", "experiment": "Count of Lactobacilli in treated fermentative must (MRS)"}, "[1]": {"conditions": "in relation to the control sample 4"}},
  "data": [
    {"smiles": "CC[C@@]1([C@@H]2O[C@@H]([C@H]3O[C@@](O)(CO)[C@H](C)C[C@@H]3C)C[C@@H]2C)CC[C@H]([C@]2(C)CC[C@]3(C[C@H](O)[C@@H](C)[C@@H]([C@@H](C)[C@@H](OC)[C@H](C)C(=O)O)O3)O2)O1", "note": "[Sample 01, monensin]", "values": [
      {"measurement": "TSA UFC/mL bacteria", "setting": "bacteria; fermentative must after treatment, blank 6 × 10^5", "value": "7 × 10^3 UFC/mL"},
      {"measurement": "reduction in other bacteria", "setting": "bacteria; [1]", "value": "about 2 log"},
      {"measurement": "WLN UFC/mL Saccharomyces cerevisiae", "setting": "Saccharomyces cerevisiae; fermentative must after treatment, blank 1.3 × 10^6", "value": "1 × 10^5 UFC/mL"},
      {"measurement": "reduction in the fermentative yeast", "setting": "Saccharomyces cerevisiae; [1]", "value": "about 1 log"},
      {"measurement": "WLN+ UFC/mL Wild yeast", "setting": "Wild yeast; fermentative must after treatment, blank 9.5 × 10^6", "value": "2 × 10^4 UFC/mL"},
      {"measurement": "reduction in the wild yeast", "setting": "Wild yeast; [1]", "value": "about 3 log"},
      {"measurement": "MRS UFC/mL Lactobacilli", "setting": "Lactobacilli; fermentative must after treatment, blank 3.1 × 10^6", "value": "2.5 × 10^2 UFC/mL"},
      {"measurement": "reduction in the Lactobacilli", "setting": "Lactobacilli; [1]", "value": "about 4 log"}
    ]}
  ]
}
